PubChem BioAssay AID2060511 (Molecular Pharmacology Branch, DTP, NCI, 2025)
pIC50: −log10 of the molar value.

System: 422866-222-R5-J1-PDC spheroids with HUVEC/MSC, viability
Assay: Anticancer human tumor 422866-222-R5-J1-PDC patient-derived pancreatic adenocarcinoma cell line growth inhibition [GQUAD]
Settings: for pIC50: curve of first compound; for viability, T/C: stronger effect = lower value
Method in brief: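 Viability of tumor cells grown as complex spheroids with endothelial and stromal cells, exposed to drug combinations. Top concentration at or near clinical Cmax (else 10 microM), diluted in half-log increments.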

[1] = second compound 0.0316 µM, first compound 0.0316 µM
[2] = second compound 0.0316 µM, first compound 0.1 µM
[3] = second compound 0.0316 µM, first compound 0.316 µM
[4] = second compound 0.0316 µM, first compound 1 µM
[5] = second compound 0.0316 µM, first compound 3.16 µM
[6] = second compound 0.0316 µM, first compound 10 µM
[7] = second compound 0.1 µM, first compound 0.0316 µM
[8] = second compound 0.1 µM, first compound 0.1 µM
[9] = second compound 0.1 µM, first compound 0.316 µM
[10] = second compound 0.1 µM, first compound 1 µM
[11] = second compound 0.1 µM, first compound 3.16 µM
[12] = second compound 0.1 µM, first compound 10 µM
[13] = second compound 0.316 µM, first compound 0.0316 µM
[14] = second compound 0.316 µM, first compound 0.1 µM
[15] = second compound 0.316 µM, first compound 0.316 µM
[16] = second compound 0.316 µM, first compound 1 µM
[17] = second compound 0.316 µM, first compound 3.16 µM
[18] = second compound 0.316 µM, first compound 10 µM
[19] = second compound 1 µM, first compound 0.0316 µM
[20] = second compound 1 µM, first compound 0.1 µM
[21] = second compound 1 µM, first compound 0.316 µM
[22] = second compound 1 µM, first compound 1 µM
[23] = second compound 1 µM, first compound 3.16 µM
[24] = second compound 1 µM, first compound 10 µM
[25] = second compound 3.16 µM, first compound 0.0316 µM
[26] = second compound 3.16 µM, first compound 0.1 µM
[27] = second compound 3.16 µM, first compound 0.316 µM
[28] = second compound 3.16 µM, first compound 1 µM
[29] = second compound 3.16 µM, first compound 3.16 µM
[30] = second compound 3.16 µM, first compound 10 µM
[31] = second compound 10 µM, first compound 0.0316 µM
[32] = second compound 10 µM, first compound 0.1 µM
[33] = second compound 10 µM, first compound 0.316 µM
[34] = second compound 10 µM, first compound 1 µM
[35] = second compound 10 µM, first compound 3.16 µM
[36] = second compound 10 µM, first compound 10 µM
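Further: spheroids exposed to compounds for seven days before reading.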
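Wherever viability, T/C is given: percent viability relative to DMSO vehicle control taken as 100%.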

CC(C)n1c(=O)n(C)c2cnc3cc(F)c(-c4ccc(OCCCN5CCCCC5)nc4)cc3c21 + Cc1[nH]c2ccc(F)cc2c1-c1nc2c3cccnc3c3ncccc3c2[nH]1
pIC50 (second compound 0.0316 µM): < 5.00 | pIC50 (second compound 0.1 µM): < 5.00 | pIC50 (second compound 0.316 µM): < 5.00 | pIC50 (second compound 1 µM): < 5.00 | pIC50 (second compound 3.16 µM): < 5.00 | pIC50 (second compound 10 µM): < 5.00 | viability, T/C [1]: 86.9% | viability, T/C [2]: 99.4% | viability, T/C [3]: 94% | viability, T/C [4]: 91.1% | viability, T/C [5]: 89.2% | viability, T/C [6]: 52% | viability, T/C [7]: 99.4% | viability, T/C [8]: 114% | viability, T/C [9]: 112% | viability, T/C [10]: 83.2% | viability, T/C [11]: 113% | viability, T/C [12]: 73.5% | viability, T/C [13]: 93.8% | viability, T/C [14]: 90.6% | viability, T/C [15]: 102% | viability, T/C [16]: 92.1% | viability, T/C [17]: 92.2% | viability, T/C [18]: 68.5% | viability, T/C [19]: 95.4% | viability, T/C [20]: 89.2% | viability, T/C [21]: 91.3% | viability, T/C [22]: 91.9% | viability, T/C [23]: 117% | viability, T/C [24]: 64.9% | viability, T/C [25]: 78.3% | viability, T/C [26]: 88.2% | viability, T/C [27]: 105% | viability, T/C [28]: 94.7% | viability, T/C [29]: 98% | viability, T/C [30]: 63.9% | viability, T/C [31]: 73% | viability, T/C [32]: 95.1% | viability, T/C [33]: 91.7% | viability, T/C [34]: 80.9% | viability, T/C [35]: 85.2% | viability, T/C [36]: 54.5%

C=CC(=O)N1CCN(c2nc(=O)n(-c3c(C)ccnc3C(C)C)c3nc(-c4c(O)cccc4F)c(F)cc23)C(C)C1 (centres undefined) + Cc1[nH]c2ccc(F)cc2c1-c1nc2c3cccnc3c3ncccc3c2[nH]1
pIC50 (second compound 0.0316 µM): > 7.50 | pIC50 (second compound 0.1 µM): > 7.50 | pIC50 (second compound 0.316 µM): > 7.50 | pIC50 (second compound 1 µM): > 7.50 | pIC50 (second compound 3.16 µM): > 7.50 | pIC50 (second compound 10 µM): > 7.50 | viability, T/C [1]: 43.8% | viability, T/C [2]: 32.5% | viability, T/C [3]: 25.1% | viability, T/C [4]: 28.4% | viability, T/C [5]: 29.4% | viability, T/C [6]: 28.1% | viability, T/C [7]: 41.1% | viability, T/C [8]: 33.6% | viability, T/C [9]: 24.9% | viability, T/C [10]: 26.5% | viability, T/C [11]: 29.1% | viability, T/C [12]: 31.7% | viability, T/C [13]: 44.1% | viability, T/C [14]: 29.1% | viability, T/C [15]: 24.8% | viability, T/C [16]: 24.1% | viability, T/C [17]: 30.1% | viability, T/C [18]: 29.8% | viability, T/C [19]: 38.1% | viability, T/C [20]: 30.4% | viability, T/C [21]: 26.8% | viability, T/C [22]: 25.3% | viability, T/C [23]: 28% | viability, T/C [24]: 30.9% | viability, T/C [25]: 32.6% | viability, T/C [26]: 27.4% | viability, T/C [27]: 25.8% | viability, T/C [28]: 27.5% | viability, T/C [29]: 28.8% | viability, T/C [30]: 25.7% | viability, T/C [31]: 27.2% | viability, T/C [32]: 29.6% | viability, T/C [33]: 26.3% | viability, T/C [34]: 26.3% | viability, T/C [35]: 28.1% | viability, T/C [36]: 27.9%
